Columns and labels:
[1] = test system: MCF7, hormone-independent human breast cancer cells; assay: Proliferation assay, MCF7; assay type: cell-based; settings: MCF7, 96 h, 4 days incubation, crystal violet
Source text: (§1) Cultivated human tumor cells (MCF7, hormone-independent human breast cancer cells, related to ATCC HTB22; NCI-H460, human non-small-cell lung cancer cells, ATCC HTB-177, HCT 116, human colon cancer cells, ATCC CCL-247; DU 145, hormone-independent human prostate cancer cells, ATCC HTB-81; MaTu-MDR, hormone-independent, multiple pharmaceutical agent-resistant human breast cancer cells, EPO-GmbH, Berlin) were flattened out at a density of about 5000 cells/measuring point, depending on the growth rate of the respective cells, in a 96-well multititer plate in 200 μl of the corresponding growth medium. After 24 hours, the cells of one plate (zero-point plate) were colored with crystal violet (see below), while the medium of the other plates was replaced by fresh culture medium (200 μl), to which the test substances were added in various concentrations (0 μm, as well as in the range of 0.01-30 μm; the final concentration of the solvent dimethyl sulfoxide was 0.5%). The cells were incubated for 4 days in the presence of test substances. The cell proliferation was determined by coloring the cells with crystal violet: the cells were fixed by adding 20 μl/measuring point of an 11% glutaric aldehyde solution for 15 minutes at room temperature. After three washing cycles of the fixed cells with water, the plates were dried at room temperature. The cells were colored by adding 100 μl/measuring point of a 0.1% crystal violet solution (the pH was set at 3 by adding acetic acid). After three washing cycles of the colored cells with water, the plates were dried at room temperature. The dye was dissolved by adding 100 μl/measuring point of a 10% acetic acid solution. The extinction was determined by photometry at a wavelength of 595 nm. The change of cell growth, in percent, was calculated by normalization of the measured values to the extinction values of the zero-point plate (=0%) and the extinction of the untreated (0 μm) cells (=100%).

CDK1/CycB = target: T1, CDK1/CycB (Homo sapiens, UniProt P06493); assay: CDK1/CycB Kinase Assay; assay type: biochemical; settings: histone IIIS substrate, 33P-ATP, 15 minutes at 22° C.
T1 construct: GST; purchased ProQinase GmbH, Freiburg; host or cells: baculovirus-infected insect cells (Sf9)
T1 sequence (P06493 whole entry): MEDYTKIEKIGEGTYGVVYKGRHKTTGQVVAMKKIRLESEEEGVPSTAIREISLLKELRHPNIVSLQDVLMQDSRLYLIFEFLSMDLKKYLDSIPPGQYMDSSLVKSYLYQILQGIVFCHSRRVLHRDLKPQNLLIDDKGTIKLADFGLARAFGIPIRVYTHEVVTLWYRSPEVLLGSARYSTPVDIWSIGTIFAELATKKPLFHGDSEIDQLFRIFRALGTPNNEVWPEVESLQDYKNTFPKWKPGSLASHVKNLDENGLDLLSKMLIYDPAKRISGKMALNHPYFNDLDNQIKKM
T1 sequence (P14635 whole entry partner): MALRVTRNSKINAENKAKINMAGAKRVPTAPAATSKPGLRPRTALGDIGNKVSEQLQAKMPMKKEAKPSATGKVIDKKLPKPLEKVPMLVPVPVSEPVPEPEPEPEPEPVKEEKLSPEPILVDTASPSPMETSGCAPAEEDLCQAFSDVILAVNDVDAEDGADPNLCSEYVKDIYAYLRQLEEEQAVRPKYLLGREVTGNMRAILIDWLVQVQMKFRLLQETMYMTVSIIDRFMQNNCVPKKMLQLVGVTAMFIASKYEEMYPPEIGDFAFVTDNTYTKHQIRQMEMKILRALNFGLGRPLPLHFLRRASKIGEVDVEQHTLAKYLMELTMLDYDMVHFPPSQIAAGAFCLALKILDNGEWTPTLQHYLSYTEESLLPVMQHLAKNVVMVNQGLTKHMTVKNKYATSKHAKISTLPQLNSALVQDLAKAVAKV
Method: Recombinant CDK1- and CycB-GST-fusion proteins, purified from baculovirus-infected insect cells (Sf9), were purchased from ProQinase GmbH, Freiburg. Histone IIIS, used as a kinase substrate, is available commercially from the Sigma Company.
The reaction was stopped by adding EDTA solution (250 mmol, pH 8.0, 14 μl/measuring point).
(§2) From each reaction batch, 10 μl was applied to P30 filter strips (Wallac Company), and non-incorporated 33P-ATP was removed by subjecting the filter strips to three washing cycles for 10 minutes each in 0.5% phosphoric acid. After the filter strips were dried for one hour at 70° C., the filter strips were covered with scintillator strips (MeltiLex™ A, Wallac Company) and baked for one hour at 90° C. The amount of incorporated 33P (substrate phosphorylation) was determined by scintillation measurement in a gamma-radiation measuring device (Wallac).

CDK2/CycE = target: T2, CDK2/CycE (Homo sapiens, UniProt P24941); assay: CDK2/CycE Kinase Assay; assay type: biochemical; settings: histone IIIS substrate, 33P-ATP, 15 minutes at 22° C.
T2 construct: GST; purchased ProQinase GmbH, Freiburg; host or cells: baculovirus-infected insect cells (Sf9)
Method: Recombinant CDK2- and CycE-GST-fusion proteins, purified from baculovirus-infected insect cells (Sf9), were purchased by ProQinase GmbH, Freiburg. Histone IIIs, which was used as a kinase substrate, was purchased by the Sigma Company.
CDK2/CycE (50 ng/measuring point) was incubated for 15 minutes at 22° C. in the presence of various concentrations of test substances (0 μm, as well as within the range of 0.01-100 μm) in assay buffer [50 mmol of tris/HCl, pH 8.0, 10 mmol of MgCl2, 0.1 mmol of Na ortho-vanadate, 1.0 mmol of dithiothreitol, 0.5 μm of adenosine triphosphate (ATP), 10 μg/measuring point of histone IIIS, 0.2 μCi/measuring point of ^33P-gamma ATP, 0.05% NP40, 12.5% dimethyl sulfoxide]. The reaction was stopped by adding EDTA solution (250 mmol, pH 8.0, 14 μl/measuring point).
as §2, with “^33P-ATP” for “33P-ATP”, “^33P” for “33P”

[2] = target: T3, VEGF receptor tyrosine kinase-2 (Homo sapiens, UniProt P35968); assay: VEGF Receptor-2 Kinase Assay; assay type: biochemical; settings: poly-(Glu4Tyr) substrate, 33P-ATP, 10 minutes at 22° C.; read-out: VEGF-R2 IC50
T3 construct: GST; made in house; host or cells: baculovirus-infected insect cells (Sf9)
T3 sequence (P35968 20-1356): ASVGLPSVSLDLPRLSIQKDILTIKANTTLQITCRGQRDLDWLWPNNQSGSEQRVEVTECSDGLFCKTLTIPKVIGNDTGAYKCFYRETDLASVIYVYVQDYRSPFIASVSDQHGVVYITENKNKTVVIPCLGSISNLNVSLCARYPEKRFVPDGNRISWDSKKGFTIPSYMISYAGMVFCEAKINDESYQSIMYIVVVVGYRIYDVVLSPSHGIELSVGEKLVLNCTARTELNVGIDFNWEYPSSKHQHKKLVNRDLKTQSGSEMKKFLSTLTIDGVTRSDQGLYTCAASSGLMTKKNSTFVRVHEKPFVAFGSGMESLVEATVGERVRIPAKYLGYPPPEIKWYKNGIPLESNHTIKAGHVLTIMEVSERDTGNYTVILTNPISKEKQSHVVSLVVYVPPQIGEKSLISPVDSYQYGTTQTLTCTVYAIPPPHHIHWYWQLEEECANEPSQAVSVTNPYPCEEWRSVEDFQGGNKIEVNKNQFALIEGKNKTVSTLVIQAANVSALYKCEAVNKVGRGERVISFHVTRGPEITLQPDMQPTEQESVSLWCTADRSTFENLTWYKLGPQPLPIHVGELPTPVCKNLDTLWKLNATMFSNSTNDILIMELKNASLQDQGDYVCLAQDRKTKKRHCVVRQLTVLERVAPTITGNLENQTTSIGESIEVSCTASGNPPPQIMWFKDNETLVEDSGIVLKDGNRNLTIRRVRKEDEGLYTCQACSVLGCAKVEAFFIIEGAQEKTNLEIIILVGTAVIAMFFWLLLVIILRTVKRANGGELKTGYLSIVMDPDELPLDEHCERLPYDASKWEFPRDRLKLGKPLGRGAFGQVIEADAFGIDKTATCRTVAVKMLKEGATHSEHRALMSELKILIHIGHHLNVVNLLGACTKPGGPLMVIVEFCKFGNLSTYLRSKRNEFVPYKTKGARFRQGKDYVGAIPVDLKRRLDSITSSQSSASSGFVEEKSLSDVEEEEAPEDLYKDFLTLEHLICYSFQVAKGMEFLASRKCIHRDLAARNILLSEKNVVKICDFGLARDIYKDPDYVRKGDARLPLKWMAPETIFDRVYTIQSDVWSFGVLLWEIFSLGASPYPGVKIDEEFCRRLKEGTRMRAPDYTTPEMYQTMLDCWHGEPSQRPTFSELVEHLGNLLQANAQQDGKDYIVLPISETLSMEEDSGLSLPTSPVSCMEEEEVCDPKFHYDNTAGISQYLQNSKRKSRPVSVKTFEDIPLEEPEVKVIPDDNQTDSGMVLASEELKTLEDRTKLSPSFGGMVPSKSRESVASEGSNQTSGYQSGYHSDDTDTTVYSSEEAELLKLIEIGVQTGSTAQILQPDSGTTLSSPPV
Method: VEGF Receptor-2 Kinase Assay
Recombinant VEGF receptor tyrosine kinase-2 was purified as a GST fusion protein from baculovirus-infected insect cells (Sf9). Poly-(Glu4Tyr), which was used as a kinase substrate, was purchased by the Sigma Company.
VEGF receptor tyrosine kinase (90 ng/measuring point) was incubated for 10 minutes at 22° C. in the presence of various concentrations of test substances (0 μm, as well as within the range of 0.001-30 μm) in 30 μl of assay buffer [40 mmol of Tris/HCl, […], 10 mmol of MgCl2, 1 mmol of MnCl2, 3 μmol of Na ortho-vanadate, 1.0 mmol of dithiothreitol, 8 μmol of adenosine trisphosphate (ATP), 27 μg/measuring point of poly-(Glu4Tyr), 0.2 μCi/measuring point of 33P-gamma ATP, 1% dimethyl sulfoxide]. The reaction was stopped by adding EDTA solution (250 mmol, pH 7.0, 10 μl/measuring point).
as §2

[3] = test system: DU 145, hormone-independent human prostate cancer cells; assay: Proliferation assay, DU145; assay type: cell-based; settings: DU-145, 96 h, 4 days incubation, crystal violet
Source text: as §1

| Structure (SMILES) | IC50 [1] | IC50 (CDK1/CycB) | IC50 [2] | other results |
| --- | --- | --- | --- | --- |
| CN=S(C)(=O)c1ccc(Nc2ncc(Br)c(N[C@H](C)[C@@H](C)O)n2)cc1 (mixture of isomers) [Example 1.29, (RS)-S-[4-({5-bromo-4-[(1R,2R)-(2-hydroxy-1-methylpropyl)amino]pyrimidin-2-yl}amino)phenyl]-N,S-dimethyl-sulfoximide] | – | 7 nM | – | IC50 (CDK2/CycE): 4 nM |
| C[C@@H](O)[C@@H](C)Oc1nc(Nc2ccc(S(=N)(=O)CCO)cc2)ncc1Br (mixture of isomers) [Example 1.21, (RS)-S-[4-({5-bromo-4-[(1R,2R)-2-hydroxy-1-methyl-propoxy]pyrimidin-2-yl}amino)phenyl]-S-(2-hydroxyethyl)sulfoximide] | < 100 nM | 5 nM | – | – |
| CCOC(=O)N=S(=O)(CC)c1ccc(Nc2ncc(Br)c(N[C@H](COC)[C@@H](C)O)n2)cc1 (mixture of isomers) [Example 1.33, (RS)-S-{4-[(5-bromo-4-{[(1R,2R)-2-hydroxy-1-(methoxymethyl)propyl]amino}pyrimidin-2-yl)amino]phenyl}-N-(ethoxycarbonyl)-S-ethyl sulfoximide] | 1000 nM | 200 nM | 450 nM | – |
| CCOC(=O)N=S(C)(=O)c1ccc(Nc2ncc(Br)c(N[C@H](COC)[C@@H](C)O)n2)cc1 (mixture of isomers) [Example 1.34, (RS)-S-{4-[(5-bromo-4-{[(1R,2R)-2-hydroxy-1-(methoxymethyl)propyl]amino}pyrimidin-2-yl)amino]phenyl}-N-(ethoxycarbonyl)-S-methyl sulfoximide] | 800 nM | – | 530 nM | IC50 (CDK2/CycE): 28 nM |
| COC[C@@H](Nc1nc(Nc2ccc(S(C)(=N)=O)cc2)ncc1Br)[C@@H](C)O (mixture of isomers) [Example 1.46, (RS)-S-{4-[(5-bromo-4-{[(1R,2R)-2-hydroxy-1-(methoxymethyl)-propyl]amino}pyrimidin-2-yl)amino]phenyl}-S-methyl sulfoximide] | – | 11 nM | – | IC50 (CDK2/CycE): 4 nM |
| COc1cc(Nc2ncc(Br)c(N[C@H](C)[C@@H](C)O)n2)ccc1S(C)(=N)=O (single isomer, unassigned) [Example 1.26] | – | – | – | IC50 [3]: 70 nM |
| C[C@@H](O)[C@@H](C)Nc1nc(Nc2ccc(S(C)(=N)=O)cc2)ncc1Br (mixture of isomers) [Example 1.43, (RS)-S-[4-({5-bromo-4-[(1R,2R)-(2-hydroxy-1-methylpropyl)amino]pyrimidin-2-yl}amino)phenyl]-S-methyl sulfoximide] | < 100 nM | – | – | – |
| COc1cc(Nc2ncc(Br)c(N[C@H](C)[C@@H](C)O)n2)ccc1S(C)(=N)=O (single isomer, unassigned) [Example 1.25] | < 100 nM | – | – | – |
| CN=S(C)(=O)c1ccc(Nc2ncc(Br)c(N[C@H](C)[C@@H](C)O)n2)cc1 (mixture of isomers) [Example 1.30, (RS)-S-[4-({5-bromo-4-[(1R,2R)-(2-hydroxy-1-methylpropyl)amino]pyrimidin-2-yl}amino)phenyl]-N,S-dimethyl-sulfoximide] | – | 15 nM | – | IC50 (CDK2/CycE): 6 nM |

Further lines, with some results ahead:

| IC50 [1] | IC50 (CDK1/CycB) | IC50 [2] | Structure (SMILES) | other results |
| --- | --- | --- | --- | --- |
| 1000 nM | 72 nM | – | CC(O)CSc1nc(Nc2ccc(S(C)(=N)=O)cc2)ncc1Br (racemic) [Example 3.4, (RS)-S-[4-({5-bromo-4-[(RS)-(2-hydroxy-propyl)sulfanyl]pyrimidin-2-yl}amino)phenyl]-S-methyl sulfoximide] | – |
| – | – | 470 nM | CCS(=N)(=O)c1ccc(Nc2ncc(Br)c(N[C@H](COC)[C@@H](C)O)n2)cc1 (mixture of isomers) [Example 1.49, (RS)-S-{4-[(5-bromo-4-{[(1R,2R)-2-hydroxy-1-(methoxymethyl)-propyl]amino}pyrimidin-2-yl)amino]phenyl}-S-ethyl sulfoximide] | – |
| – | 11 nM | – | CCS(=N)(=O)c1ccc(Nc2ncc(Br)c(N[C@H](C)[C@@H](C)O)n2)cc1 (mixture of isomers) [Example 1.53, (RS)-S-[4-({5-bromo-4-[(1R,2R)-(2-hydroxy-1-methylpropyl)amino]pyrimidin-2-yl}amino)phenyl]-S-ethyl sulfoximide] | – |
| < 100 nM | – | 66 nM | Cc1cc(Nc2ncc(Br)c(N[C@H](C)C(C)(C)O)n2)ccc1S(C)(=N)=O (mixture of isomers) [Example 1.57, (RS)-S-[4-({5-bromo-4-[(R)-(2-hydroxy-1,2-dimethylpropyl)amino]pyrimidin-2-yl}amino)-2-methylphenyl]-S-methyl sulfoximide] | – |
| – | – | 230 nM | CCS(=N)(=O)c1ccc(Nc2ncc(Br)c(N[C@H](COC)[C@@H](C)O)n2)cc1 (mixture of isomers) [Example 1.50, (RS)-S-{4-[(5-bromo-4-{[(1R,2R)-2-hydroxy-1-(methoxymethyl)-propyl]amino}pyrimidin-2-yl)amino]phenyl}-S-ethyl sulfoximide] | – |
| 1000 nM | 55 nM | – | CC(C)(O)CSc1nc(Nc2ccc(S(C)(=N)=O)cc2)ncc1Br (racemic) [Example 3.9, (RS)-S-[4-({5-bromo-4-[(2-hydroxy-2-methyl-propyl)sulfanyl]pyrimidin-2-yl}amino)phenyl]-S-methyl sulfoximide] | IC50 (CDK2/CycE): 8 nM |
| – | 27 nM | – | COC[C@@H](Nc1nc(Nc2ccc(S(C)(=N)=O)cc2)ncc1Br)[C@@H](C)O (mixture of isomers) [Example 1.47, (RS)-S-{4-[(5-bromo-4-{[(1R,2R)-2-hydroxy-1-(methoxymethyl)-propyl]amino}pyrimidin-2-yl)amino]phenyl}-S-methyl sulfoximide] | – |
| – | – | 45 nM | Cc1cc(Nc2ncc(Br)c(N[C@H](C)C(C)(C)O)n2)ccc1S(C)(=N)=O (mixture of isomers) [Example 1.58, (RS)-S-[4-({5-bromo-4-[(R)-(2-hydroxy-1,2-dimethylpropyl)amino]pyrimidin-2-yl}amino)-2-methylphenyl]-S-methyl sulfoximide] | – |
| – | – | 48 nM | Cc1cc(Nc2ncc(Br)c(N[C@H](C)C(C)(C)O)n2)ccc1S(C)(=N)=O (mixture of isomers) [Example 1.59, (RS)-S-[4-({5-bromo-4-[(R)-(2-hydroxy-1,2-dimethylpropyl)amino]pyrimidin-2-yl}amino)-2-methylphenyl]-S-methyl sulfoximide] | – |
